Results as given in the supplement of paper PMC10307832.

How the values were obtained:
Experiment in all cases: relative viability (nuclei count vs DMSO), 5 days (fraction); higher = more cells survive
JZL-184 + Pictilisib = compound: C1CN(CCC1C(C2=CC3=C(C=C2)OCO3)(C4=CC5=C(C=C4)OCO5)O)C(=O)OC6=CC=C(C=C6)[N+](=O)[O-] [JZL-184] + CS(=O)(=O)N1CCN(Cc2cc3nc(-c4cccc5[nH]ncc45)nc(N4CCOCC4)c3s2)CC1 [Pictilisib] (partner 1 µM)
How it was run: (§1)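 Medians of duplicate plates are given as relative viability. That measure is the nuclei count in treated wells divided by the count in vehicle wells. Counts were taken on 4× images of lung cancer cell lines in 1536-well plates, 5 days after pin-tool dosing the day after seeding with one drug alone or a fixed anchor-drug dose plus five library-drug doses (not always all listed) in √10 steps.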

JZL-184 + Tozasertib = compound: C1CN(CCC1C(C2=CC3=C(C=C2)OCO3)(C4=CC5=C(C=C4)OCO5)O)C(=O)OC6=CC=C(C=C6)[N+](=O)[O-] [JZL-184] + Cc1cc(Nc2cc(N3CCN(C)CC3)nc(Sc3ccc(NC(=O)C4CC4)cc3)n2)n[nH]1 [Tozasertib] (partner 0.1 µM)
How it was run: as §1

JZL-184 + Alpelisib = compound: C1CN(CCC1C(C2=CC3=C(C=C2)OCO3)(C4=CC5=C(C=C4)OCO5)O)C(=O)OC6=CC=C(C=C6)[N+](=O)[O-] [JZL-184] + Cc1nc(NC(=O)N2CCC[C@H]2C(N)=O)sc1-c1ccnc(C(C)(C)C(F)(F)F)c1 [Alpelisib] (partner 2 µM)
How it was run: as §1

JZL-184 + Phenformin = compound: C1CN(CCC1C(C2=CC3=C(C=C2)OCO3)(C4=CC5=C(C=C4)OCO5)O)C(=O)OC6=CC=C(C=C6)[N+](=O)[O-] [JZL-184] + N=C(N)NC(=N)NCCc1ccccc1 [Phenformin] (partner 250 µM)
How it was run: as §1

JZL-184 + Vorinostat = compound: C1CN(CCC1C(C2=CC3=C(C=C2)OCO3)(C4=CC5=C(C=C4)OCO5)O)C(=O)OC6=CC=C(C=C6)[N+](=O)[O-] [JZL-184] + O=C(CCCCCCC(=O)Nc1ccccc1)NO [Vorinostat] (partner 1 µM)
How it was run: as §1

Cell Line	relative viability (JZL-184 + Pictilisib; first compound 0.04 µM)	relative viability (JZL-184 + Pictilisib; first compound 0.4 µM)	relative viability (JZL-184 + Pictilisib; first compound 1.265 µM)	relative viability (JZL-184 + Pictilisib; first compound 4 µM)	relative viability (JZL-184 + Tozasertib; first compound 0.04 µM)	relative viability (JZL-184 + Tozasertib; first compound 0.4 µM)	relative viability (JZL-184 + Tozasertib; first compound 1.265 µM)	relative viability (JZL-184 + Tozasertib; first compound 4 µM)	relative viability (JZL-184 + Alpelisib; first compound 0.04 µM)	relative viability (JZL-184 + Alpelisib; first compound 0.4 µM)	relative viability (JZL-184 + Alpelisib; first compound 1.265 µM)	relative viability (JZL-184 + Alpelisib; first compound 4 µM)	relative viability (JZL-184 + Phenformin; first compound 0.04 µM)	relative viability (JZL-184 + Phenformin; first compound 0.4 µM)	relative viability (JZL-184 + Phenformin; first compound 1.265 µM)	relative viability (JZL-184 + Phenformin; first compound 4 µM)	relative viability (JZL-184 + Vorinostat; first compound 0.04 µM)	relative viability (JZL-184 + Vorinostat; first compound 0.4 µM)	relative viability (JZL-184 + Vorinostat; first compound 1.265 µM)	relative viability (JZL-184 + Vorinostat; first compound 4 µM)
NCI-H2087	0.824	0.677	0.934	1	0.23	0.229	0.268	0.244	1.11	1.02	1.11	1.01	0.538	0.449	0.515	0.486	0.969	0.742	0.807	1
NCI-H2126	0.498	0.499	0.514	0.5	0.89	0.749	0.883	0.767	0.721	0.738	0.802	0.717	0.6	0.541	0.538	0.532	0.753	0.698	0.76	0.737
NCI-H2170	0.341	0.309	0.332	0.331	0.83	0.646	0.787	0.66	0.806	0.793	0.74	0.736	0.435	0.407	0.419	0.419	0.922	0.754	0.811	0.737
NCI-H2228	0.235	0.311	0.309	0.518	0.327	0.299	0.282	0.271	0.894	0.726	0.709	0.789	0.405	0.239	0.317	0.412	0.898	0.572	0.639	0.703
NCI-H2347	0.768	0.654	0.61	0.688	0.447	0.442	0.551	0.662	1.05	1.02	1.05	1.1	0.357	0.393	0.369	0.536	–	0.494	0.661	0.616
NCI-H2405	0.531	0.444	0.493	0.486	0.759	0.729	0.815	0.732	0.673	0.794	0.83	0.816	0.336	0.398	0.419	0.392	1.15	0.83	1.3	0.968
NCI-H3122	0.678	0.602	0.59	0.581	0.432	0.393	0.453	0.396	0.751	0.813	0.646	0.804	0.38	0.387	0.376	0.39	1.05	0.988	0.965	1.06
PC-3 [JPC-3]	0.773	0.735	0.773	0.738	1.01	0.827	0.895	0.865	1.09	0.961	1.05	1.01	0.45	0.464	0.495	0.487	0.873	0.761	1.14	0.736
PC-14	0.867	0.619	0.722	0.589	0.647	0.623	0.631	0.485	0.975	0.892	0.965	0.847	0.756	0.473	0.72	0.504	0.848	0.722	0.758	0.661
RERF-LC-KJ	0.508	0.513	0.676	0.47	0.499	0.37	0.453	0.436	0.753	0.761	0.837	0.804	0.479	0.357	0.382	0.371	0.707	0.642	0.699	0.614
SK-LU-1	0.631	0.517	0.7	0.611	0.372	0.328	0.329	0.338	1.51	0.931	1.3	1.06	0.528	0.504	0.677	0.564	0.795	0.744	0.894	0.717
SK-MES-1	0.348	0.408	0.389	0.349	1.04	0.878	0.908	0.706	0.938	0.851	0.863	0.896	0.736	0.64	0.688	0.615	1.12	1.05	1.05	0.955
SW 1573	0.609	0.364	0.491	0.498	0.175	0.143	0.229	0.176	0.873	0.605	0.894	0.75	0.446	0.296	0.373	0.283	0.824	0.64	0.788	0.551
UMC-11	1.16	0.808	0.984	0.824	0.177	0.21	0.206	0.196	1.39	0.904	0.924	0.96	0.289	0.319	0.3	0.331	0.405	0.415	0.381	0.304
